The source of these data is ChEMBL document CHEMBL3217488, “Preliminary in vitro evaluation of N-(benzofuroxan-5-yl)methylene benzohydrazide derivatives as potential anti-Trypanosoma cruzi agents” (Medchemcomm, 2012).

For data set [1], the system named is Trypanosoma cruzi. The experiment in a line: Antitrypanosomal activity against epimastigote stage of Trypanosoma cruzi Y assessed as parasite growth inhibition at 10 ug/mL after 72 hrs by spectrophotometric analysis relative to control. Conditions: read-out: GI. It is filed as functional.
The subject of data set [2] is Trypanosoma cruzi. The experiment in a line: Antitrypanosomal activity against epimastigote stage of Trypanosoma cruzi Y assessed as parasite growth inhibition at 20 ug/mL after 72 hrs by spectrophotometric analysis relative to control. Conditions: read-out: GI. It is filed as functional.
For data set [3], the system named is Trypanosoma cruzi. Description: Antitrypanosomal activity against epimastigote stage of Trypanosoma cruzi Y assessed as parasite growth inhibition at 50 ug/mL after 72 hrs by spectrophotometric analysis relative to control. Conditions: read-out: GI. It is filed as functional.
Data set [4] in a line: Genotoxicity in human bronchial epithelial cells assessed as increase of micronucleated cells at 50 ug/mL after 24 hrs by acridine orange staining-based fluorescence microscopic analysis. Conditions: epithelial cell. It is filed as toxicity.

In the case of `O=C(N/N=C/c1ccc2c(c1)no[n+]2[O-])c1ccc(Cl)c(Cl)c1`, the inhibition of growth at 10 µg/mL with Trypanosoma cruzi [1] turned out to be 51%. Moreover, the inhibition of growth at 20 µg/mL in the data set on Trypanosoma cruzi [2] was 81%. Also, the inhibition of growth at 50 µg/mL in the data set with Trypanosoma cruzi [3] amounted to 75%.

Regarding `O=C(N/N=C/c1ccc2c(c1)no[n+]2[O-])c1ccc([N+](=O)[O-])c(C(F)(F)F)c1`, in the data set with Trypanosoma cruzi [1], the inhibition of growth at 10 µg/mL came to 54%. In addition, the inhibition of growth at 20 µg/mL in the data set on Trypanosoma cruzi [2] amounted to 82%. In the data set with Trypanosoma cruzi [3], the inhibition of growth at 50 µg/mL is 82%.

On to `O=C(N/N=C/c1ccc2c(c1)no[n+]2[O-])c1ccc(Cl)cc1Cl`, for which, in the data set on Trypanosoma cruzi [1], the inhibition of growth at 10 µg/mL was 42%. In addition, the inhibition of growth at 20 µg/mL in the data set on Trypanosoma cruzi [2] came out at 72%. Moreover, in the data set with Trypanosoma cruzi [3], the inhibition of growth at 50 µg/mL worked out at 89%.

On to `O=C(N/N=C/c1ccc2c(c1)no[n+]2[O-])c1ccc([N+](=O)[O-])cc1`, for which the inhibition of growth at 10 µg/mL with Trypanosoma cruzi [1] stood at 13%. Further, the inhibition of growth at 20 µg/mL in the data set on Trypanosoma cruzi [2] turned out to be 73%. The inhibition of growth at 50 µg/mL in the data set on Trypanosoma cruzi [3] came out at 73%.

With `CCc1ccc(C(=O)N/N=C/c2ccc3c(c2)no[n+]3[O-])cc1`, in the data set with Trypanosoma cruzi [1], the inhibition of growth at 10 µg/mL is 47%. Also, the inhibition of growth at 20 µg/mL with Trypanosoma cruzi [2] was 76%. Besides, the inhibition of growth at 50 µg/mL with Trypanosoma cruzi [3] came out at 85%.

As to `CCOc1ccc(C(=O)N/N=C/c2ccc3c(c2)no[n+]3[O-])cc1`, the inhibition of growth at 10 µg/mL in the data set on Trypanosoma cruzi [1] was found to be 32%. For the same molecule, the inhibition of growth at 20 µg/mL in the data set with Trypanosoma cruzi [2] is 68%. Moreover, in the data set on Trypanosoma cruzi [3], the inhibition of growth at 50 µg/mL was 66%.

Consider `Cc1ccc(C(=O)N/N=C/c2ccc3c(c2)no[n+]3[O-])cc1`, for which the inhibition of growth at 10 µg/mL in the data set with Trypanosoma cruzi [1] was 34%. Besides, the inhibition of growth at 20 µg/mL with Trypanosoma cruzi [2] was 62%. The inhibition of growth at 50 µg/mL in the data set with Trypanosoma cruzi [3] turned out to be 76%.

As for `O=C(N/N=C/c1ccc2c(c1)no[n+]2[O-])c1ccc(Br)cc1`, in the data set on Trypanosoma cruzi [1], the inhibition of growth at 10 µg/mL was found to be 44%. For the same molecule, in the data set on Trypanosoma cruzi [2], the inhibition of growth at 20 µg/mL amounted to 76%. Moreover, the inhibition of growth at 50 µg/mL in the data set with Trypanosoma cruzi [3] was 58%.

As to `O=C(N/N=C/c1ccc2c(c1)no[n+]2[O-])c1ccc(Cl)cc1`, the inhibition of growth at 10 µg/mL with Trypanosoma cruzi [1] amounted to 54%. The inhibition of growth at 20 µg/mL in the data set with Trypanosoma cruzi [2] came out at 83%. Also, the inhibition of growth at 50 µg/mL with Trypanosoma cruzi [3] was determined as 62%. The Activity result in data set [4] is reported as “Non-toxic”.

Regarding `CC(=O)c1ccc(C(=O)N/N=C/c2ccc3c(c2)no[n+]3[O-])cc1`, the inhibition of growth at 10 µg/mL with Trypanosoma cruzi [1] is 14%. Besides, the inhibition of growth at 20 µg/mL in the data set with Trypanosoma cruzi [2] is 34%. For the same molecule, the inhibition of growth at 50 µg/mL with Trypanosoma cruzi [3] was 83%.

As to `O=C(N/N=C/c1ccc2c(c1)no[n+]2[O-])c1ccccc1`, in the data set on Trypanosoma cruzi [1], the inhibition of growth at 10 µg/mL came to 46%. Further, the inhibition of growth at 20 µg/mL in the data set with Trypanosoma cruzi [2] was determined as 82%. The inhibition of growth at 50 µg/mL with Trypanosoma cruzi [3] came out at 95%. The Activity entry in data set [4] is recorded as “Non-toxic”.

In the case of `Nc1ccc(C(=O)N/N=C/c2ccc3c(c2)no[n+]3[O-])cc1`, in the data set on Trypanosoma cruzi [1], the inhibition of growth at 10 µg/mL amounted to 7%. Also, the inhibition of growth at 20 µg/mL in the data set on Trypanosoma cruzi [2] came out at 24%. The inhibition of growth at 50 µg/mL in the data set on Trypanosoma cruzi [3] was 42%.

On to `N#Cc1ccc(C(=O)N/N=C/c2ccc3c(c2)no[n+]3[O-])cc1`, for which, in the data set with Trypanosoma cruzi [1], the inhibition of growth at 10 µg/mL is 8%. Also, the inhibition of growth at 20 µg/mL with Trypanosoma cruzi [2] stood at 39%. Also, the inhibition of growth at 50 µg/mL in the data set with Trypanosoma cruzi [3] is 44%.

In the case of `O=C(N/N=C/c1ccc2c(c1)no[n+]2[O-])c1ccc(O)cc1`, the inhibition of growth at 10 µg/mL with Trypanosoma cruzi [1] was found to be 0%. The inhibition of growth at 20 µg/mL with Trypanosoma cruzi [2] is 3%. Further, the inhibition of growth at 50 µg/mL in the data set on Trypanosoma cruzi [3] is 47%.

With `O=C(N/N=C/c1ccc2c(c1)no[n+]2[O-])c1ccc(F)cc1`, in the data set with Trypanosoma cruzi [1], the inhibition of growth at 10 µg/mL came out at 45%. Also, the inhibition of growth at 20 µg/mL in the data set on Trypanosoma cruzi [2] is 79%. In the data set on Trypanosoma cruzi [3], the inhibition of growth at 50 µg/mL turned out to be 78%.

As to `O=C(N/N=C/c1ccc2c(c1)no[n+]2[O-])c1ccc(I)cc1`, the inhibition of growth at 10 µg/mL in the data set with Trypanosoma cruzi [1] is 54%. Besides, in the data set on Trypanosoma cruzi [2], the inhibition of growth at 20 µg/mL came out at 81%. In addition, the inhibition of growth at 50 µg/mL in the data set with Trypanosoma cruzi [3] came to 60%.

As to `O=C(N/N=C/c1ccc2c(c1)no[n+]2[O-])c1ccc(C(F)(F)F)cc1`, in the data set on Trypanosoma cruzi [1], the inhibition of growth at 10 µg/mL came out at 65%. In addition, the inhibition of growth at 20 µg/mL in the data set on Trypanosoma cruzi [2] turned out to be 86%. Besides, in the data set with Trypanosoma cruzi [3], the inhibition of growth at 50 µg/mL is 82%. Also, the Activity entry in data set [4] is reported as “Non-toxic”.

Take `COc1ccc(C(=O)N/N=C/c2ccc3c(c2)no[n+]3[O-])cc1`: the inhibition of growth at 10 µg/mL in the data set with Trypanosoma cruzi [1] worked out at 36%. In the data set on Trypanosoma cruzi [2], the inhibition of growth at 20 µg/mL is 69%. Besides, the inhibition of growth at 50 µg/mL in the data set on Trypanosoma cruzi [3] was 76%.

Take `CN(C)c1ccc(C(=O)N/N=C/c2ccc3c(c2)no[n+]3[O-])cc1`: the inhibition of growth at 10 µg/mL with Trypanosoma cruzi [1] was found to be 4%. Further, in the data set with Trypanosoma cruzi [2], the inhibition of growth at 20 µg/mL turned out to be 7%. In the data set with Trypanosoma cruzi [3], the inhibition of growth at 50 µg/mL is 10%.

For `NS(=O)(=O)c1ccc(C(=O)N/N=C/c2ccc3c(c2)no[n+]3[O-])cc1`, the inhibition of growth at 10 µg/mL with Trypanosoma cruzi [1] was 5%. Also, the inhibition of growth at 20 µg/mL with Trypanosoma cruzi [2] amounted to 9%. For the same molecule, in the data set on Trypanosoma cruzi [3], the inhibition of growth at 50 µg/mL stood at 12%.

Regarding `O=C(Cn1ccnc1[N+](=O)[O-])NCc1ccccc1` [BENZNIDAZOLE], the inhibition of growth at 10 µg/mL in the data set on Trypanosoma cruzi [1] amounted to 44%. Further, the inhibition of growth at 20 µg/mL in the data set with Trypanosoma cruzi [2] was determined as 66%. Besides, in the data set with Trypanosoma cruzi [3], the inhibition of growth at 50 µg/mL stood at 77%.
